Data reported in patent publication US20250205373A1, “ENRICHED AND STABLE RADIOLIGAND THERAPY FORMULATIONS AND PHARMACEUTICAL COMPOSITIONS COMPRISING SAME” (Mariana Oncology Inc., priority 2023, published 2025).
Numbered stars: 1 amine (or outer) side, 2 acyl side, 3 side chain; on linkers, the order of the positions; unused ones are H or OH. Bridge positions count the residues as written; N and C are the ends. Square brackets hold non-standard residues; d marks the D form. Side chains are listed from the residue outwards. Peptide text beside a SMILES is read from it. * marks the point of attachment. Ala(1-CH2CO2H-4-piperidyl) = N[C@@H](CC1CCN(CC(=O)O)CC1)C(=O)O; Ala(piperidin-4-yl) = O=C([C@H](CC1CCN([*:3])CC1)N[*:1])[*:2]; X1 = CC(C)[C@H](N[*:1])C(=O)C[C@@H](Cc1ccc(O)cc1)C(=O)[*:2]; DOTA = O=C(O)CN1CCN(CC(=O)O)CCN(CC(=O)*)CCN(CC(=O)O)CC1; Trp(5-F) = N[C@@H](Cc1c[nH]c2ccc(F)cc12)C(=O)O; X2 = C[C@@H](c1ccccc1)[C@H](N[*:1])C(=O)[*:2]; Val(3-OH) = CC(C)(O)[C@H](N)C(=O)O; PEG4 = NCCOCCOCCOCCOCCC(=O)O; Tle = CC(C)(C)[C@H](N)C(=O)O; hLeu = CC(C)CC[C@H](N)C(=O)O

Target: T1, B7-H3 (41 g) (Homo sapiens, UniProt Q5ZPR3)
T1 sequence (Q5ZPR3 29-534): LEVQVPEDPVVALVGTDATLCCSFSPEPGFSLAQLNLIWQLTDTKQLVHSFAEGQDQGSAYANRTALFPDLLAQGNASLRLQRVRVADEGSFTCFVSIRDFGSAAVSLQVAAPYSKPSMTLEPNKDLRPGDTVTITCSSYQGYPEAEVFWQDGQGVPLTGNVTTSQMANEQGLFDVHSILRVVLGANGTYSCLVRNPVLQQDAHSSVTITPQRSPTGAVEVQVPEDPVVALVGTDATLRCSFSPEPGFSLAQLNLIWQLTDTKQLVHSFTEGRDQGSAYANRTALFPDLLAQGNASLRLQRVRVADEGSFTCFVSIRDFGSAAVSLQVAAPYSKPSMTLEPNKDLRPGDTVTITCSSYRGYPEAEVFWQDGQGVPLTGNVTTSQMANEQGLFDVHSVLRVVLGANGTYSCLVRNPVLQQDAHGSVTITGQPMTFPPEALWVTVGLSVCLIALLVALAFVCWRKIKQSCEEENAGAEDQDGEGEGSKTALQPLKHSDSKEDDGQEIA
Assay: Binding of Compound 496 to B7-H3

## CC(=O)N[C@@H](CCC(C)C)C(=O)N[C@@H](Cc1ccc(O)cc1)C(=O)N[C@H]1CSSC[C@@H](C(=O)N[C@@H](Cc2c[nH]c3ccc(F)cc23)C(=O)N[C@H](C(=O)N[C@H](C(=O)N[C@H](CCC(=O)O)C(N)=O)C(C)(C)O)[C@@H](C)c2ccccc2)NC(=O)[C@H](Cc2ccc(O)cc2)CC(=O)[C@H](C(C)C)NC(=O)[C@H](CC(=O)O)NC(=O)[C@H](CC2CCN(C(=O)CCOCCOCCOCCOCCNC(=O)CN3CCN(CC(=O)O)CCN(CC(=O)O)CCN(CC(=O)O)CC3)CC2)NC(=O)[C@H](CC2CCN(CC(=O)O)CC2)NC(=O)CNC(=O)[C@H](C(C)(C)C)NC1=O [Compound 496] (Ac-[hLeu]YC[Tle]G[Ala(1-CH2CO2H-4-piperidyl)][Ala(piperidin-4-yl)]([PEG4-DOTA])D[X1]C[Trp(5-F)][X2][Val(3-OH)][dE]-NH2; disulfide 3-10)
B7-H3 (41 g) vs 21 g isoform
  selectivity over the 21 g isoform: selectivity over the 21 g isoform
B7-H3 (41 g), the predominant form expressed by tumor cells
  binding affinity: high affinity
